According to patent publication US20240101542A1, “ERAP INHIBITORS” (UNIVERSITE DE LILLE, priority 2020, published 2024):

Molecular target: ERAP2 (Homo sapiens (Human), UniProt Q6P179)
Test: In vitro ERAP activity assay, ERAP2 with R-AMC substrate
Type: biochemical
Design: IC50 on ERAP2 using R-AMC as substrate: scale not given here
Settings: R-AMC as substrate
Protocol: (§1) The enzymatic activity of ERAP1 or 2 was assayed using L-AMC (L-Leucine-7-amido-4-methylcoumarin hydrochloride) or R-AMC (L-Arginine-7-amido-4-methylcoumarin hydrochloride) respectively. Hepes at 50 mM with 100 mM NaCl at pH 7 was used as buffer. Briefly, 60 nL of test compounds were added in 384-wells plates (dark, non-binding surface) by acoustic dispensing with nanoacoustic dispenser Echo (Labcyte) and pre-incubated 30 minutes at ambient temperature with 10 μL of ERAP 0.8 μg/mL or 1 μg/mL or vehicle. The reaction was then started with the addition of 10 μL of substrate at 10 μM. The final concentration of ERAP, substrate and DMSO was 0.5 μg/mL, 5 μM and 0.4% respectively. For the kinetic readout a Victor 3V (Perkin-Elmer) was used with excitation at 380 nm and emission at 450 nm. The fluorescence was measured each 3 minutes during one hour.
(§2) The Z and Z′ factors were calculated according to J.-H. Zhang, T. D. Y. Chung, K. R. Oldenburg, A Simple Statistical Parameter for Use in Evaluation and Validation of High Throughput Screening Assays, J. Biomol. Screen., 4 (1999) 67-73. Data analysis was performed using Xlfit® v 5.0 or GraphPad Prism® v 4.0.
(§3) Percentages of inhibition at different concentrations were obtained as described above and IC50s were carried out as 8-point dose response curves and reported as the average of at least three independent measurements. […] Data analysis was performed using Xlfit® v 5.0 or GraphPad Prism® v 4.0. Nonlinear curve fitting and statistical analysis was done using built-in functions.

Chain of ERAP2 (Q6P179 whole entry): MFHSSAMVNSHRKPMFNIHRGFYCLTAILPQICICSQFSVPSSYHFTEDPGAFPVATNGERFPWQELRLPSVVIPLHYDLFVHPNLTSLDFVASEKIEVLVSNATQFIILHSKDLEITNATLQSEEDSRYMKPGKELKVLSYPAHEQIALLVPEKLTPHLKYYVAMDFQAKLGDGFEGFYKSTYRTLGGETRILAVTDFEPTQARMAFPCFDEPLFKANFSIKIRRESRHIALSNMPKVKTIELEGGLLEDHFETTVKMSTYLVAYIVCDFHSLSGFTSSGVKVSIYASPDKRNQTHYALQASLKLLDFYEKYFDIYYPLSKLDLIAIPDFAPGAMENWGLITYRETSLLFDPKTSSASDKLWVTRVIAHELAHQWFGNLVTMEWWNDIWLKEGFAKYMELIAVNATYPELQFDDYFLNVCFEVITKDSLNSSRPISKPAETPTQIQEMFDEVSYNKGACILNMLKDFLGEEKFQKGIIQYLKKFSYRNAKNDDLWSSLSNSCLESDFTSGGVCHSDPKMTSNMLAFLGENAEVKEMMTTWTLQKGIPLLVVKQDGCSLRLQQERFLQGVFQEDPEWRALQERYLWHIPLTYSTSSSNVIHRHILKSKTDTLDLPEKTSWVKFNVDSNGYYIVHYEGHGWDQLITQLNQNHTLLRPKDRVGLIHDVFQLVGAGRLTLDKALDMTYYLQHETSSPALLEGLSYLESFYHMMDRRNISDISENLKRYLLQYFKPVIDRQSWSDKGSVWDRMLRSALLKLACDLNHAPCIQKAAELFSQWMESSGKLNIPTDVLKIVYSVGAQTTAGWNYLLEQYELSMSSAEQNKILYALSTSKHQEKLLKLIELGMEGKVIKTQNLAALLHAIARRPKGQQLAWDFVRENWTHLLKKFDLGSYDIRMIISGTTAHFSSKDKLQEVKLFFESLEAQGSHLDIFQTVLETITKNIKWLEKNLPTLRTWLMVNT

| Compound | IC50 on ERAP2 using R-AMC as substrate |
| --- | --- |
| CN(Cc1cn([C@@H](Cc2c[nH]c3ccccc23)C(=O)NO)nn1)S(=O)(=O)c1ccc(-c2ccccc2)s1 [Compound 3] | + + |
| O=C(NO)[C@H](Cc1c[nH]c2ccccc12)n1cc(CNS(=O)(=O)c2ccc(Br)s2)nn1 [Compound 5] | + + |
| O=C(C[C@@H](Cc1ccc2ccccc2c1)n1cc(CNS(=O)(=O)c2ccc(-c3ccccc3)s2)nn1)NO [Compound 6] | + + |
| O=C(C[C@H](Cc1ccc(O)cc1)n1cc(CNS(=O)(=O)c2ccc(-c3ccccc3)s2)nn1)NO [Compound 7] | + + |
| O=C(NO)[C@@H](Cc1ccc(O)cc1)n1cc(CNS(=O)(=O)c2ccc(-c3ccccc3)s2)nn1 [Compound 8] | + + |
| O=C(NO)[C@H](Cc1ccc(O)cc1)n1cc(CNS(=O)(=O)c2ccc(-c3ccccc3)s2)nn1 [Compound 10] | + + |
| CNC(=O)c1ccc(-c2ccc(S(=O)(=O)NCc3cn([C@@H](Cc4ccc(O)cc4)C(=O)NO)nn3)s2)cc1 [Compound 11] | + + |
| NCc1ccc(-c2ccc(S(=O)(=O)NCc3cn([C@@H](Cc4ccc(O)cc4)C(=O)NO)nn3)s2)cc1 [Compound 12] | + + |
| CN(Cc1cn([C@@H](Cc2ccc(O)cc2)C(=O)NO)nn1)S(=O)(=O)c1ccc(-c2ccccc2)s1 [Compound 13] | + + |
| O=C(NO)[C@H](Cc1ccc(O)cc1)n1cc(CNS(=O)(=O)c2ccc(Br)s2)nn1 [Compound 14] | + + |
| O=C(NO)[C@H](Cc1ccc(O)cc1)n1cc(CNS(=O)(=O)c2cccs2)nn1 [Compound 15] | + + |
| Cc1ccc(S(=O)(=O)NCc2cn([C@@H](Cc3ccc(O)cc3)C(=O)NO)nn2)s1 [Compound 16] | + + |
| O=C(NO)[C@H](Cc1ccc(O)cc1)n1cc(CNS(=O)(=O)c2ccsc2)nn1 [Compound 17] | + + |
| O=C(NO)[C@H](Cc1ccc(O)cc1)n1cc(CNS(=O)(=O)c2sccc2Br)nn1 [Compound 18] | + + |
| O=C(NO)[C@H](Cc1ccc(O)cc1)n1cc(CNS(=O)(=O)c2ccc(-c3ccccn3)s2)nn1 [Compound 19] | + + |
| O=C(NO)[C@@H](Cc1ccc(O)cc1)n1cc(CNS(=O)(=O)c2ccc(-c3ccccn3)s2)nn1 [Compound 20] | + + |
| O=C(C[C@H](Cc1ccc(O)cc1)n1nncc1CNS(=O)(=O)c1ccc(-c2ccccc2)s1)NO [Compound 31] | + + |
| CN(Cc1cnnn1[C@H](CC(=O)NO)Cc1ccc(O)cc1)S(=O)(=O)c1ccc(-c2ccccc2)s1 [Compound 32] | + + |
| O=C(NO)[C@H](Cc1ccc(O)cc1)n1nncc1CNS(=O)(=O)c1ccc(-c2ccccc2)s1 [Compound 34] | + + |

Same assay, conditions: R-AMC as substrate; read-out: IC50 on ERAP2 using R-AMC as substrate

| Compound | IC50 |
| --- | --- |
| O=C(C[C@@H](Cc1c[nH]c2ccccc12)n1cc(CNS(=O)(=O)c2ccc(-c3ccccc3)s2)nn1)NO [Compound 1] | > 5 µM |
| O=C(NO)[C@@H](Cc1c[nH]c2ccccc12)n1cc(CNS(=O)(=O)c2ccc(-c3ccccc3)s2)nn1 [Compound 2] | > 5 µM |
| O=C(NO)[C@H](Cc1c[nH]c2ccccc12)n1cc(CNS(=O)(=O)c2ccc(-c3ccccc3)s2)nn1 [Compound 4] | > 5 µM |
| CN(Cc1cn([C@H](CC(=O)NO)Cc2ccc(O)cc2)nn1)S(=O)(=O)c1ccc(-c2ccccc2)s1 [Compound 9] | > 5 µM |
| O=C(NO)[C@H](Cc1ccc(OC(F)(F)F)cc1)n1cc(CNS(=O)(=O)c2ccc(-c3ccccn3)s2)nn1 [Compound 21] | < 0.5 µM |
| O=C(NO)[C@H](Cc1ccc(OC(F)(F)F)cc1)n1cc(CNS(=O)(=O)c2ccc(-c3ccccc3)s2)nn1 [Compound 22] | < 0.5 µM |
| CC(C)(C)Oc1ccc(C[C@@H](C(=O)NO)n2cc(CNS(=O)(=O)c3ccc(-c4ccccc4)s3)nn2)cc1 [Compound 26] | < 0.5 µM |
| CC(C)(C)Oc1ccc(C[C@@H](C(=O)NO)n2cc(CNS(=O)(=O)c3ccc(-c4ccccn4)s3)nn2)cc1 [Compound 27] | < 0.5 µM |
| CNC(=O)c1ccc(-c2ccc(S(=O)(=O)NCc3cn([C@@H](Cc4ccc(OC)cc4)C(=O)NO)nn3)s2)cc1 [Compound 28] | < 0.5 µM |
| O=C(NO)[C@H](Cc1ccc(O)cc1)n1cc(CNS(=O)(=O)c2ccc(-c3cccnc3)s2)nn1 [Compound 29] | < 0.5 µM |
| O=C(C[C@@H](Cc1c[nH]c2ccccc12)n1nncc1CNS(=O)(=O)c1ccc(-c2ccccc2)s1)NO [Compound 30] | > 5 µM |
| O=C(NO)[C@@H](Cc1ccc(O)cc1)n1nncc1CNS(=O)(=O)c1ccc(-c2ccccc2)s1 [Compound 35] | > 5 µM |
| COc1ccc(C[C@@H](C(=O)NO)n2cc(CNS(=O)(=O)c3ccc(-c4ccncc4)s3)nn2)cc1 [Compound 36] | < 0.5 µM |
| O=C(NO)[C@H](Cc1ccc2c(c1)OCO2)n1cc(CNS(=O)(=O)c2ccc(-c3ccccn3)s2)nn1 [Compound 37] | < 0.5 µM |
| COc1ccc(C[C@@H](C(=O)NO)n2cc(CNS(=O)(=O)c3ccc(-c4cccnc4)s3)nn2)cc1 [Compound 38] | < 0.5 µM |
| O=C(NO)[C@H](Cc1ccc(O)c(Cl)c1)n1cc(CNS(=O)(=O)c2ccc(-c3ccccn3)s2)nn1 [Compound 39] | < 0.5 µM |
| O=C(NO)[C@H](Cc1ccc(O)c(Cl)c1)n1cc(CNS(=O)(=O)c2ccc(-c3ccccc3)s2)nn1 [Compound 40] | < 0.5 µM |
| COc1ccc(C[C@@H](C(=O)NO)n2cc(CNS(=O)(=O)c3ccc(-c4ccccn4)s3)nn2)cc1OC [Compound 41] | < 0.5 µM |
| COc1ccc(C[C@@H](C(=O)NO)n2cc(CNS(=O)(=O)c3ccc(-c4ccccc4)s3)nn2)cc1OC [Compound 42] | < 0.5 µM |
| CNC(=O)c1cccc(-c2ccc(S(=O)(=O)NCc3cn([C@@H](Cc4ccc(OC)cc4)C(=O)NO)nn3)s2)c1 [Compound 43] | < 0.5 µM |
| O=C(NO)[C@H](Cc1ccc(O)c(F)c1)n1cc(CNS(=O)(=O)c2ccc(-c3ccccn3)s2)nn1 [Compound 44] | < 0.5 µM |
| COc1ccc(C[C@@H](C(=O)NO)n2cc(CN(C)S(=O)(=O)c3ccc(-c4ccccn4)s3)nn2)cc1 [Compound 46] | < 0.5 µM |
| COc1ccc(C[C@@H](C(=O)NO)n2cc([C@H](C)NS(=O)(=O)c3ccc(-c4ccccn4)s3)nn2)cc1 [Compound 47] | < 0.5 µM |
| COc1ccc(C[C@@H](C(=O)NO)n2cc([C@@H](C)NS(=O)(=O)c3ccc(-c4ccccn4)s3)nn2)cc1 [Compound 48] | < 5 µM |
| COc1ccccc1C[C@@H](C(=O)NO)n1cc(CNS(=O)(=O)c2ccc(-c3ccccn3)s2)nn1 [Compound 50] | > 5 µM |
| COCCOc1ccc(C[C@@H](C(=O)NO)n2cc(CNS(=O)(=O)c3ccc(-c4ccccn4)s3)nn2)cc1 [Compound 51] | < 0.5 µM |

Same assay, conditions: at 2 mM; ERAP1 or 2 activity assay; read-out: inhibition (reference inhibitor)

| Compound | inhibition at 2000 µM |
| --- | --- |
| CC(C)C[C@H](NC(=O)[C@@H](O)[C@H](N)Cc1ccccc1)C(=O)O [Bestatin, reference compound] | 100% |

Molecular target: ERAP1 (Homo sapiens (Human), UniProt Q9NZ08)
Sequence (Q9NZ08 whole entry): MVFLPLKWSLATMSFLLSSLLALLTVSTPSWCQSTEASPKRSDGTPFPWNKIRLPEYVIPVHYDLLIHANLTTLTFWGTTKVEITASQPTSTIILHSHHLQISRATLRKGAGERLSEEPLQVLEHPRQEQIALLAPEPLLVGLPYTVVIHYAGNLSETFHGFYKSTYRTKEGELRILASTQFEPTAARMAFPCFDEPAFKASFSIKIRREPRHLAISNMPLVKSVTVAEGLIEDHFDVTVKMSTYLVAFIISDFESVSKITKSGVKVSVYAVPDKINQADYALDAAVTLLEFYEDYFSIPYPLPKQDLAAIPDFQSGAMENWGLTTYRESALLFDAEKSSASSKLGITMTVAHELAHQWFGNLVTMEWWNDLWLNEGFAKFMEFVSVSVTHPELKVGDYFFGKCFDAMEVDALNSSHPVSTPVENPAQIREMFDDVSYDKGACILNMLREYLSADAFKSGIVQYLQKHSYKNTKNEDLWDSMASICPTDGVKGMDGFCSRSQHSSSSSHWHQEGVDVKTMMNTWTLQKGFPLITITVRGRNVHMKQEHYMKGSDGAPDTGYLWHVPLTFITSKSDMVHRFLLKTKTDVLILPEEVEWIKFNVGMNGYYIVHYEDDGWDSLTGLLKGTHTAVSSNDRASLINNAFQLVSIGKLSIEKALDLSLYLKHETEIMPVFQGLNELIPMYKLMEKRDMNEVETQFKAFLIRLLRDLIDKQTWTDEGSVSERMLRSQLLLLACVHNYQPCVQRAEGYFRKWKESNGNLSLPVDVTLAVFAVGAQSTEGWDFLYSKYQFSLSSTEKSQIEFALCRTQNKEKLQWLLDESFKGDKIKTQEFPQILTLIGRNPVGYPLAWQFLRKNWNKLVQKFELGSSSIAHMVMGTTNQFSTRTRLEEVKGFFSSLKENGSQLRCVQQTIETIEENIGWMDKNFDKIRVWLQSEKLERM
Test: In vitro ERAP activity assay, ERAP1 with L-AMC substrate
Type: biochemical
Settings: L-AMC as substrate; read-out: IC50 on ERAP1 or ERAAP using L-AMC as substrate
Protocol: as §1, §2, §3

| Compound | IC50 |
| --- | --- |
| O=C(NO)[C@@H](Cc1c[nH]c2ccccc12)n1cc(CNS(=O)(=O)c2ccc(-c3ccccc3)s2)nn1 [Compound 2] | > 5 µM |
| CN(Cc1cn([C@@H](Cc2c[nH]c3ccccc23)C(=O)NO)nn1)S(=O)(=O)c1ccc(-c2ccccc2)s1 [Compound 3] | > 5 µM |
| O=C(NO)[C@H](Cc1c[nH]c2ccccc12)n1cc(CNS(=O)(=O)c2ccc(-c3ccccc3)s2)nn1 [Compound 4] | > 5 µM |
| O=C(NO)[C@H](Cc1c[nH]c2ccccc12)n1cc(CNS(=O)(=O)c2ccc(Br)s2)nn1 [Compound 5] | > 5 µM |
| O=C(C[C@@H](Cc1ccc2ccccc2c1)n1cc(CNS(=O)(=O)c2ccc(-c3ccccc3)s2)nn1)NO [Compound 6] | > 5 µM |
| O=C(NO)[C@@H](Cc1ccc(O)cc1)n1cc(CNS(=O)(=O)c2ccc(-c3ccccc3)s2)nn1 [Compound 8] | > 5 µM |
| O=C(NO)[C@H](Cc1ccc(O)cc1)n1cc(CNS(=O)(=O)c2ccc(-c3ccccc3)s2)nn1 [Compound 10] | > 5 µM |
| NCc1ccc(-c2ccc(S(=O)(=O)NCc3cn([C@@H](Cc4ccc(O)cc4)C(=O)NO)nn3)s2)cc1 [Compound 12] | > 5 µM |
| CN(Cc1cn([C@@H](Cc2ccc(O)cc2)C(=O)NO)nn1)S(=O)(=O)c1ccc(-c2ccccc2)s1 [Compound 13] | > 5 µM |
| O=C(NO)[C@H](Cc1ccc(O)cc1)n1cc(CNS(=O)(=O)c2ccc(Br)s2)nn1 [Compound 14] | > 5 µM |
| O=C(NO)[C@H](Cc1ccc(O)cc1)n1cc(CNS(=O)(=O)c2cccs2)nn1 [Compound 15] | > 5 µM |
| O=C(NO)[C@H](Cc1ccc(O)cc1)n1cc(CNS(=O)(=O)c2ccsc2)nn1 [Compound 17] | > 5 µM |
| O=C(NO)[C@H](Cc1ccc(O)cc1)n1cc(CNS(=O)(=O)c2ccc(-c3ccccn3)s2)nn1 [Compound 19] | > 5 µM |
| O=C(NO)[C@@H](Cc1ccc(O)cc1)n1cc(CNS(=O)(=O)c2ccc(-c3ccccn3)s2)nn1 [Compound 20] | > 5 µM |
| COc1ccc(C[C@@H](C(=O)NO)n2cc(CNS(=O)(=O)c3ccc(-c4ccccc4)s3)nn2)cc1 [Compound 24] | > 5 µM |
| CNC(=O)c1ccc(-c2ccc(S(=O)(=O)NCc3cn([C@@H](Cc4ccc(OC)cc4)C(=O)NO)nn3)s2)cc1 [Compound 28] | < 5 µM |
| O=C(C[C@H](Cc1ccc(O)cc1)n1nncc1CNS(=O)(=O)c1ccc(-c2ccccn2)s1)NO [Compound 33] | > 5 µM |
| COc1ccc(C[C@@H](C(=O)NO)n2cc(CNS(=O)(=O)c3ccc(-c4ccncc4)s3)nn2)cc1 [Compound 36] | > 5 µM |
| O=C(NO)[C@H](Cc1ccc2c(c1)OCO2)n1cc(CNS(=O)(=O)c2ccc(-c3ccccn3)s2)nn1 [Compound 37] | > 5 µM |
| O=C(NO)[C@H](Cc1ccc(O)c(Cl)c1)n1cc(CNS(=O)(=O)c2ccc(-c3ccccn3)s2)nn1 [Compound 39] | < 5 µM |
| O=C(NO)[C@H](Cc1ccc(O)c(Cl)c1)n1cc(CNS(=O)(=O)c2ccc(-c3ccccc3)s2)nn1 [Compound 40] | > 5 µM |
| COc1ccc(C[C@@H](C(=O)NO)n2cc(CNS(=O)(=O)c3ccc(-c4ccccn4)s3)nn2)cc1OC [Compound 41] | < 5 µM |
| COc1ccc(C[C@@H](C(=O)NO)n2cc(CNS(=O)(=O)c3ccc(-c4ccccc4)s3)nn2)cc1OC [Compound 42] | < 0.5 µM |
| CNC(=O)c1cccc(-c2ccc(S(=O)(=O)NCc3cn([C@@H](Cc4ccc(OC)cc4)C(=O)NO)nn3)s2)c1 [Compound 43] | > 5 µM |
| O=C(NO)[C@H](Cc1ccc(O)c(F)c1)n1cc(CNS(=O)(=O)c2ccc(-c3ccccn3)s2)nn1 [Compound 44] | > 5 µM |
